Here are results for 4 molecules from ChEMBL document CHEMBL1123726, “Resolution of racemic carbocyclic analogues of purine nucleosides through the action of adenosine deaminase. Antiviral activity of the carbocyclic 2'-deoxyguanosine enantiomers” (1987).

The species named for assay [1] is Oryctolagus cuniculus. Nature of the assay: Compound was evaluated for the virus rating (VR) against Herpes simplex virus type 1 (HSV-1) in rabbit kidney cells. It counts as functional.
The species named for assay [2] is Oryctolagus cuniculus. Nature of the assay: Compound was evaluated for the virus rating (VR) against Herpes simplex virus type 2 (HSV-2) in rabbit kidney cells. It counts as functional.
For assay [3], the species on record is Oryctolagus cuniculus. The assay can be described thus: Minimum inhibitory concentration against strain 377 (TK+) Herpes simplex virus type 1 (HSV-1) in rabbit kidney cells. It counts as functional.
The species entered for assay [4] is Oryctolagus cuniculus. The assay can be described thus: Minimum inhibitory concentration against strain MS Herpes simplex virus type 2 (HSV-2) in rabbit kidney cells. It counts as functional.
The test system of assay [5] is Vero. Nature of the assay: Minimum inhibitory concentration was determined for inhibition of cytopathogenic effects produced by strain 377 (TK+) Herpes simplex virus type 1 (HSV-1) in vero cells. It counts as functional, cell-based. The settings on record: Chlorocebus sabaeus. Background: Protection from cytopathic effect is a common read-out in antiviral testing.

For assay [6], the system named is Vero. Nature of the assay: Minimum inhibitory concentration was determined for inhibition of cytopathogenic effects produced by strain MS Herpes simplex virus type 2 (HSV-2) in vero cells. The format is functional, cell-based. To be noted: Chlorocebus sabaeus.
Assay [7] relates to Vero. Nature of the assay: Compound was evaluated for the virus rating (VR) in test 1 against Herpes simplex virus type 1 (HSV-1) in vero cells. It counts as functional, Chlorocebus sabaeus.
The subject of assay [8] is Vero. The assay can be described thus: Compound was evaluated for the virus rating (VR) in test 2 against Herpes simplex virus type 1 (HSV-1) in vero cells. The format is functional, Chlorocebus sabaeus.
Where [9] appears, read: Oryctolagus cuniculus, read-out: MIC50.

In brackets after ≈: the same amount, converted by molar mass.

Turning to `Nc1nc(O)c2ncn([C@@H]3C[C@H](CO)[C@@H](O)C3)c2n1` (stereo in doubt; 4b+5b), the results for the VR in the assay filed under Oryctolagus cuniculus [1] and in the assay listed under Oryctolagus cuniculus [2] were 7 and 3.7, respectively. The values for the MIC50 in the assay filed under Oryctolagus cuniculus [3] and in the assay listed under Oryctolagus cuniculus [4] were 0.3 µg/mL (≈ 1.13 µM) and 0.8 µg/mL (≈ 3.02 µM), respectively.

For the molecule `Nc1nc(N)c2ncn(C3CC(O)C(CO)C3)c2n1` (configuration not stated), the MIC50 entry in the assay with Vero [5] and against Vero [6] was “Minimum inhibitory concentration was determined for inhibition of cytopathogenic effects produced by strain MS Herpes simplex virus type 2 (HSV-2) in vero cells” throughout.

On to `Nc1nc(O)c2ncn([C@@H]3C[C@H](CO)[C@@H](O)C3)c2n1` (stereo in doubt; 4b), for which the VR worked out at 5.9 in the assay listed under Oryctolagus cuniculus [1] and 3.8 in the assay listed under Oryctolagus cuniculus [2]. The MIC50 in the assay filed under Oryctolagus cuniculus [3] (setting [9]) is 0.3 µg/mL (≈ 1.13 µM); in the assay filed under Oryctolagus cuniculus [4] (setting [9]), 0.7 µg/mL (≈ 2.64 µM).

Consider `Nc1nc2c(ncn2[C@H]2C[C@@H](CO)[C@H](O)C2)c(=O)[nH]1`, for which the VR in the assay on Vero [7] stood at 0.8; in the assay on Vero [8], 1.1.
